Columns and labels:
[1] = molecular target: T1, AHR (Rattus norvegicus, UniProt P41738); experiment: Dioxin induced AHR dependent transcription, rat cells; assay type: cell-based
T1 construct: had no activity on rat cells; endogenous in cells; host or cells: unnamed rat cells
T1 sequence (P41738 10-853): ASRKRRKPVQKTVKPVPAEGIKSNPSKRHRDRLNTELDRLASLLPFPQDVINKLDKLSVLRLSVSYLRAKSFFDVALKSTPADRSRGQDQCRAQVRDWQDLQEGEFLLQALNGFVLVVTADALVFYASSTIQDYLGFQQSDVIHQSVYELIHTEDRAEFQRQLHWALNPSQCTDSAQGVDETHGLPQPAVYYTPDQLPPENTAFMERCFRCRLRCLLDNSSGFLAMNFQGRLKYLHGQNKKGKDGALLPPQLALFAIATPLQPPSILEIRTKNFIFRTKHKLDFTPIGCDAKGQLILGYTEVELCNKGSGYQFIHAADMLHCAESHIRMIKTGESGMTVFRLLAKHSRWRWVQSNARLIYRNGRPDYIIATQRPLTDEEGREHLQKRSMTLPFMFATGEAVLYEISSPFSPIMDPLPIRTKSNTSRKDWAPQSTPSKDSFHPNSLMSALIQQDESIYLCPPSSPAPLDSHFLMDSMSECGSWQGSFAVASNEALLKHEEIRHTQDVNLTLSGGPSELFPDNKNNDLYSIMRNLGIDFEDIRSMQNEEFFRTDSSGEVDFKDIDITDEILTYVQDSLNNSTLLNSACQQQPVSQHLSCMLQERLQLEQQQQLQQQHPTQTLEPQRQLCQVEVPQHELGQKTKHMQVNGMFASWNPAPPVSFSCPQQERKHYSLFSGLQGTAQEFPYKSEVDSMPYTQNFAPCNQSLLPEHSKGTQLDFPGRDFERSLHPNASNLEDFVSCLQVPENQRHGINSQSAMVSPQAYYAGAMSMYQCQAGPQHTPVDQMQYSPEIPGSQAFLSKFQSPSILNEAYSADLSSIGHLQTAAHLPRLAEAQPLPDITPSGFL
Protocol: Further, the ability of Example 1 to block 2,3,7,8-tetrachlorodibenzo-p-dioxin (TCDD, dioxin)-mediated CYP1B1 mRNA expression by qPCR in mPB-derived CD34^+ cells was determined. Treatment with TCDD (3 nM) caused a 4.5-fold increase in the level of CYP1B1 mRNA compared with the vehicle control (0.01% toluene). […] To determine the effects of Example 1 in AHR transcription the ability of Example 1 to inhibit a dioxin-induced AHR dependent luciferase reporter gene assay was tested.

[2] = system: mPB CD34+ cells and CB CD34+ cells; experiment: Colony-Forming Units in Culture (CFU-C) Assay; assay type: cell-based, human
Protocol: Colony-Forming Units in Culture (CFU-C) Assay: Mononuclear cells at 1000 per mL for cord blood 5 week and mPB 3 week culture and 100 cells per mL for C δ 3 week and mPB 1 week culture were added to MethoCult SF H4436, serum-free methylcellulose medium containing methylcellulose in Iscove's MDM, bovine serum albumin, 2-mercaptoethanol, L-glutamine, human transferring (iron saturated), recombinant human insulin, and recombinant human cytokines: stem cell factor, GM-CSF, IL-3, IL-6, G-CSF, and erythropoietin (StemCell Technologies). The MethoCult is supplemented with the following human recombinant cytokines: thrombopoietin, and Flt-3 ligand (R&D Systems), each at a final concentration of 50 ng/mL. After stirring, the mixture is divided into three 35-mm dishes. The dishes are incubated for 14 days at 37° C. in a humidified atmosphere of 5% CO2 in air. At the end of the incubation period, myeloid and erythroid colonies are counted under an inverted microscope at 40× magnification. CFU-C content of the expansion culture is calculated as follows: number of scored colonies per three dishes×total mononuclear cell number/input cell number. Up to one week, total mononuclear cells are determined by multiplying the number of cells per milliliter by the culture volume. From week 1 and on, the number of passages is also taken into account. Cultures treated with 4-(2-(2-(benzo[b]thiophen-3-yl)-9-isopropyl-9H-purin-6-ylamino)ethyl)phenol (compound 1, table 1; example 1) at a concentration of 1 micromolar, generated a greater than 10-fold increase in the number of colony forming cells after 21 days of culture of mPB CD34+ cells compared to vehicle. […] Cells treated with a 4-(2-(2-(benzo[b]thiophen-3-yl)-9-isopropyl-9H-purin-6-ylamino)ethyl)phenol (compound 1, table 1; example 1) generated more mixed colonies associated with a >10-fold increase in erythrocyte colonies, a >10-fold increase in granulocyte/macrophage colonies, and a >10-fold increase in macrophage colonies.

agonist activity (AHR dependent transcription) [1]: only weak agonist activity | inhibition of dioxin induced transcription [1]: no activity
SMILES: CC(C)n1cnc2c(NCCc3ccc(O)cc3)nc(-c3csc4ccccc34)nc21 [Example 1, 4-(2-(2-(benzo[b]thiophen-3-yl)-9-isopropyl-9H-purin-6-ylamino)ethyl)phenol]
increase in colony forming units compared to control ([2]; 1 micromolar, 1x10^3 CB CD34+ cells, 5 week culture): greater than 10 fold | increase in the number of colony forming cells compared to vehicle ([2]; 1 micromolar, after 21 days of culture of mPB CD34+ cells): greater than 10 fold | mixed granulocyte/erythrocyte/monocyte/macrophage colonies ([2]; not observed in colonies derived from untreated cultures): give rise mixed granulocyte/erythrocyte/monocyte/macrophage colonies | increase in erythrocyte colonies ([2]; treated cells vs untreated): greater than 10 fold | increase in granulocyte/macrophage colonies ([2]; treated cells vs untreated): greater than 10 fold | increase in macrophage colonies ([2]; treated cells vs untreated): greater than 10 fold

From US9580426B2, “Compounds that expand hematopoietic stem cells” (Novartis AG, priority 2008, dated 2017)
